Data taken from patent publication US5661136A, “2-halo-2'-fluoro ARA adenosines as antinoplastic agents” (priority 1994, dated 1997).

Experiments:
[1] = target: T1, DNA polymerase α (Homo sapiens, UniProt P09884); conditions: incorporated 5'-monophosphate; cited from earlier work
T1 sequence (P09884 1-1462): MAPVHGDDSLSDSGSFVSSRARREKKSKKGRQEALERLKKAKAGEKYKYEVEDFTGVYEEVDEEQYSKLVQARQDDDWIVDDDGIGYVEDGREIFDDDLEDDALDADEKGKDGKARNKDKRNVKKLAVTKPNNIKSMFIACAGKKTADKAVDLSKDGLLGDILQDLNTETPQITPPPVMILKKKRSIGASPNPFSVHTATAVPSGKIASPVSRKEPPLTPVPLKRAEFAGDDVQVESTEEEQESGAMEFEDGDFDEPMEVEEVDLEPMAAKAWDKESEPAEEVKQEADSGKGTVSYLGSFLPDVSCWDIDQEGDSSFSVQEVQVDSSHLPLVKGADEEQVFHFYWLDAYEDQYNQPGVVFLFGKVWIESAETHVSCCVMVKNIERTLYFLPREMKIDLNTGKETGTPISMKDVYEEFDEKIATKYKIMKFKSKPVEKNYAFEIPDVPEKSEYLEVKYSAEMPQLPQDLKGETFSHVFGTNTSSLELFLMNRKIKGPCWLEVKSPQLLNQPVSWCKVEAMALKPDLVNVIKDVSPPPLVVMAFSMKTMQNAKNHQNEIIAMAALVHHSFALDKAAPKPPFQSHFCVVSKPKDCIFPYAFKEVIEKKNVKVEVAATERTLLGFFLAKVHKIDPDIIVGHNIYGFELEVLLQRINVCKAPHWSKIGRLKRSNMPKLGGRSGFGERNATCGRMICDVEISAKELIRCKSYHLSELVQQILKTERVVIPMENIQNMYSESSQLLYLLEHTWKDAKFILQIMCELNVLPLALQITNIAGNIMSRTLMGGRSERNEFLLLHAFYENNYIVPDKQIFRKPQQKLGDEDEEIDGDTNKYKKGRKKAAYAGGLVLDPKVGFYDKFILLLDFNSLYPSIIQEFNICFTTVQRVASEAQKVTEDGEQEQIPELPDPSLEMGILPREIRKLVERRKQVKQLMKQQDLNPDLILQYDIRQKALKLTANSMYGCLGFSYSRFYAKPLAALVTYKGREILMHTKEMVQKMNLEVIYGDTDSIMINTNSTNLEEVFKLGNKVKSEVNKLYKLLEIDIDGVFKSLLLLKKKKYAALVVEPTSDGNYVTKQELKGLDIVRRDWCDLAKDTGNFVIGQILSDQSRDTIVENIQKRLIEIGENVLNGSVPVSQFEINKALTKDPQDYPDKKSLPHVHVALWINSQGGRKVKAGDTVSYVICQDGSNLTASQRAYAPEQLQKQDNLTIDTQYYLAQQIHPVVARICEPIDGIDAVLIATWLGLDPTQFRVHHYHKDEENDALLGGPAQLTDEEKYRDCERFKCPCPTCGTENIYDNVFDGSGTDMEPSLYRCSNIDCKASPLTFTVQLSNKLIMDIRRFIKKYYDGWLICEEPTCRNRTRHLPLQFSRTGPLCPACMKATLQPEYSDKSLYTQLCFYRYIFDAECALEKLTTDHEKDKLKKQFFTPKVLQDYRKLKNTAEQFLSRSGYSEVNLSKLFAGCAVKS

[2] = target: T2, ribonucleotide reductase (Homo sapiens, UniProt P23921); conditions: cited from earlier work; for inhibition of ribonucleotide reductase (in words): 5'-triphosphate of the nucleoside analogue
T2 sequence (P23921 1-792): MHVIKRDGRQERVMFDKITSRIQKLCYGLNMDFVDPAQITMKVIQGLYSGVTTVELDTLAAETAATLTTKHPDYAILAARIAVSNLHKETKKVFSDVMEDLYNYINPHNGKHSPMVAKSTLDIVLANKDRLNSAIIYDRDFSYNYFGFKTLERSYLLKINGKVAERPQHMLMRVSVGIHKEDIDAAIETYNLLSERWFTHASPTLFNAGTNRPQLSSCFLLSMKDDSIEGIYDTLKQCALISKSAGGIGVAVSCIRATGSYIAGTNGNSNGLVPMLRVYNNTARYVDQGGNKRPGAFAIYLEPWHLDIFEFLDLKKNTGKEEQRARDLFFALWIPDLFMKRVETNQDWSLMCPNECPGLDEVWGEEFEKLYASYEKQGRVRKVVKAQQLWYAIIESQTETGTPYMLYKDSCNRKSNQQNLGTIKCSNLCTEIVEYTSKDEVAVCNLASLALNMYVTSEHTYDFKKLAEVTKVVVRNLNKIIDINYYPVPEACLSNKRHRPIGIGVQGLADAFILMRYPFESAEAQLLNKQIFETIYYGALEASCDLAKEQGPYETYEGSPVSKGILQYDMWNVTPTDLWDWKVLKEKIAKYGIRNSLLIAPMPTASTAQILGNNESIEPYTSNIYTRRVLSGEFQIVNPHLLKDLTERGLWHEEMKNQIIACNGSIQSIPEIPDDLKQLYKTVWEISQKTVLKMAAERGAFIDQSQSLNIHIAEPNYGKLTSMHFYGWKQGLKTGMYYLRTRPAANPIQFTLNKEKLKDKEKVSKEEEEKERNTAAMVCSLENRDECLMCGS

[3] = tested on: P388 leukemia; test: In vivo activity vs ip P388 leukemia, ip administration; parameters: species or system CD2F1 mice
Text: This, coupled with the lower toxicity of the cleavage product, 2-chloroadenine, relative to 2-fluoroadenine, make this compound a preferred compound of the present invention. The following Table III provides a summary of the in vivo activity of the 9-(2-fluoro-2-deoxy-β-D-arabinofuranosyl)-2-haloadenines vs P388 leukemia cell line in which CD2F1 mice were implanted ip with 10^6 P388 leukemia cells on day 0 in accordance with the protocol of Waud et al [Cancer Res. 50:3232 (1990)].
In the above table, the optimal dose refers to mg/kg/dose (≤LD50); ILS refers to the increase in life span; and the log change refers to the change in viable tumor cell population at the end of therapy compared to that at the start of therapy, based on the median day of death among the animals that died. The data in this table is presented in accordance with the National Cancer Institute activity criteria for drug testing in which an ILS of 20-74% is considered moderate activity, and an ILS of 75% or more is considered good activity.

[4] = tested on: CCRF-CEM; test: Cytotoxicity, inhibition of cell proliferation to 50% of untreated controls; type: cell-based, human; conditions: CCRF-CEM human cell line; read-out: Cytotoxicity as IC50, CCRF-CEM
Text: (§1) In contrast to the previously reported 2'-substituted 9-β-D-arabinofuranosyl-2-haloadenines, the 2'-fluoro compounds were quite cytotoxic to three human cell lines, H.Ep.-2, CCRF-CEM, and K562, and the murine lukemia line, L1210.
(§2) Obviously, to be useful as anticancer agents, the nucleosides of the present invention must show the ability to kill cells in vitro. […] One cell line (L1210) is a murine lukemia, whereas the other three are human neoplasms. […] Many people today emphasize the importance of toxicity to human cell lines.

[5] = tested on: K562; test: as above; type: cell-based, human; conditions: K562 human cell line; read-out: Cytotoxicity as IC50, K562
Text: as §1, §2

[6] = tested on: H.Ep.-2; test: as above; type: cell-based, human; conditions: HEp-2; H.Ep.-2 human cell line; read-out: Cytotoxicity as IC50, H.Ep.-2
Text: as §1, §2

[7] = tested on: K562 cells; conditions: cited from earlier work
[8] = tested on: P388 leukemia; test: Antitumor activity against ip P388 leukemia, oral administration; type: in vivo, mice; conditions: oral 67 mg/kg/dose
Protocol: In a similar test, compound 3d was administered orally and evaluated for antitumor activity against ip P388 leukemia cells. As the data in Table III indicates, the optimal regimen for the compound, administered ip, is in divided doses five on days 1, 5, and 9, a similar schedule was selected for the oral administration of this compound. In this set of experiments, an oral dosage of 67 mg/kg/dose, given q 6 h×4 on days 1, 5, and 9, effected a reduction in tumor burden of 1.7 log10 units, a figure which is approximately 2.5 log10 units less that that obtained in studies using ip drug administration.

[9] = relative to 9-β-D-arabinofuranosyl-2-fluoroadenine; cited from earlier work
[10] = tested on: L1210; test: Cytotoxicity, inhibition of cell proliferation to 50% of untreated controls; type: cell-based; conditions: Mus musculus; L1210 murine leukemia line; read-out: Cytotoxicity as IC50, L1210
Text: as §1, §2

[11] = target: E. coli purine nucleoside phosphorylase (Escherichia coli, UniProt P0ABP8); test: Phosphorolysis of nucleosides by purine nucleoside phosphorylase; type: biochemical; conditions: 0.5 mM nucleoside, 50 mM pH 8.0 phosphate buffer, HPLC, incubation 30-240 min, read-out: % Cleavage
Text: Subsequently, the phosphorolysis of these compounds were compared by E. coli purine nucleoside phosphorylase. The […] and 2'-deoxyribonucleosides are rapidly cleaved by this enzyme, whereas the […] nucleosides substituted at 2' by Cl, N3, or NH2 are almost completely resistant. The 2'-fluoro compounds are less resistant to cleavage, being cleaved at roughly one-third the rate of the […] and 2'-deoxynucleosides. This reduction in cleavage rate may be acceptable for pharmaceutical purposes as phosphorylation in mammalian cells is quite rapid.
More specifically, an enzyme reaction mixture consisting of 0.5 mM nucleoside substrate, 50 mM pH 8.0 phosphate buffer and purine nucleoside phosphorylase in a final volume of 1.0 mL was allowed to incubate for 30, 60, 120, 180 and 240 minutes, and the amounts of nucleoside and substrate remaining were determined by HPLC.

[12] = tested on: HIV (strain IIIB); test: Activity against HIV in cell culture; type: cell-based; conditions: CEM or MT cell lines in culture
[13] = 20 mg/kg/dose ip, q 3 h × 8 (Days 1, 5, 9)
[14] = 25 mg/kg/dose ip, q 3 h × 8 (Days 1, 5, 9)

Chain of E. coli purine nucleoside phosphorylase (P0ABP8 2-239): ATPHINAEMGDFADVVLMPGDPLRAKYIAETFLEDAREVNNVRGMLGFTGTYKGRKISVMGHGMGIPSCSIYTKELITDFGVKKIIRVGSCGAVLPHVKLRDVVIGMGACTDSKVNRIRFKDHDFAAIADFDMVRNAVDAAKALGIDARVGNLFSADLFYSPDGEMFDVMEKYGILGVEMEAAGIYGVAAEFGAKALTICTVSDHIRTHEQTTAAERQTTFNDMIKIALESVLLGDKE

Nc1nc(Cl)nc2c1ncn2[C@H]1C[C@H](O)[C@@H](COP(=O)(O)O)O1 [2-chloro-2'-deoxyadenosine 5'monophosphate]
inhibition of further elongation of the DNA chain after incorporation by DNA polymerase α [1]: did not inhibit the further elongation of the DNA chain to the degree that was seen with the incorporation of either

Nc1nc(Cl)nc2c1ncn2[C@@H]1O[C@H](COP(=O)(O)OP(=O)(O)OP(=O)(O)O)[C@@H](O)[C@@H]1F [2-chloro-9-(2-deoxy-2-fluoro-β-D-arabinofuranosyl)adenine 5'triphosphate]
inhibition of ribonucleotide reductase (in words) [2]: the same as that seen with 2-chloro-2'-deoxyadenosine 5'-triphosphate

Nc1nc(F)nc2c1ncn2[C@@H]1O[C@H](COP(=O)(O)OP(=O)(O)OP(=O)(O)O)[C@@H](O)[C@@H]1O [9-β-D-arabinofuranosyl-2-fluoroadenine 5'triphosphate]
inhibition of ribonucleotide reductase (in words) [2]: much less potent inhibitor | concentration inhibiting ribonucleotide reductase relative to 2-chloro-9-(2-deoxy-2-fluoro-β-D-arabinofuranosyl)adenine 5' triphosphate ([2]; ratio of concentrations required): 10 fold

Nc1nc(Cl)nc2c1ncn2[C@@H]1O[C@H](CO)[C@@H](O)[C@@H]1F [compound 3d, 2-Chloro-9-(2-deoxy-2-fluoro-B-D-arabinofuranosyl)-2,0 9H-purin-6-amine]
Log10 change in viable tumor cell population [3, 13]: -6.6 | Median % ILS (dying mice only) [3, 13]: +220% | Tumor-free Survivors [3, 13]: 1/6 | Log10 change in viable tumor cell population [3, 14]: -2.8 | Median % ILS (dying mice only) [3, 14]: +118% | Tumor-free Survivors [3, 14]: 0/5 | Log10 change in viable tumor cell population ([3]; 100 mg/kg/dose ip, qd 1-5): -0.3 | Median % ILS (dying mice only) ([3]; 100 mg/kg/dose ip, qd 1-5): +38% | Tumor-free Survivors ([3]; 100 mg/kg/dose ip, qd 1-5): 0/5 | Log10 change in viable tumor cell population ([3]; 200 mg/kg/dose ip, qd 1-5): -1.6 | Median % ILS (dying mice only) ([3]; 200 mg/kg/dose ip, qd 1-5): +59% | Tumor-free Survivors ([3]; 200 mg/kg/dose ip, qd 1-5): 0/3 | IC50 [4]: 50 nM | IC50 [5]: 3 nM | IC50 [6]: 12 nM | inhibition of DNA synthesis [7]: inhibits DNA synthesis | reduction in tumor burden ([8]; q 6 h×4 on days 1, 5, and 9): 1.7 log10 units | reduction in tumor burden, shortfall versus ip drug administration ([8]; q 6 h×4 on days 1, 5, and 9, compared with ip): approximately 2.5 log10 units | solubility (in words) [9]: greater solubility | IC50 [10]: 230 nM | metabolised at 500 µM [11]: 39%

Nc1nc(F)nc2c1ncn2[C@@H]1O[C@H](CO)C[C@@H]1F [compound 4b, 2-Fluoro-9-(2-3-dideoxy-2-fluoro-β-D-arabinofuranosyl)-9H-purin-6-amine]
activity against HIV (strain IIIB) [12]: slight activity
